PubChem BioAssay AID558 (University of Pittsburgh Molecular Library Screening Center, 2006)
Calls of active or inactive are those of the source. The rule behind the calls is not given here.

Biological target: Dual specificity protein phosphatase 1 (Homo sapiens) (UniProt P28562)
Test: MKP-1 phosphatase inhibition under DTT, dose response, biochemical, DTT added, probe assessment (AID 558)
Conditions: recombinant MKP-1 phosphatase, fluorescence, with DTT

Chain of Dual specificity protein phosphatase 1 (Homo sapiens) (P28562 whole entry, looked up): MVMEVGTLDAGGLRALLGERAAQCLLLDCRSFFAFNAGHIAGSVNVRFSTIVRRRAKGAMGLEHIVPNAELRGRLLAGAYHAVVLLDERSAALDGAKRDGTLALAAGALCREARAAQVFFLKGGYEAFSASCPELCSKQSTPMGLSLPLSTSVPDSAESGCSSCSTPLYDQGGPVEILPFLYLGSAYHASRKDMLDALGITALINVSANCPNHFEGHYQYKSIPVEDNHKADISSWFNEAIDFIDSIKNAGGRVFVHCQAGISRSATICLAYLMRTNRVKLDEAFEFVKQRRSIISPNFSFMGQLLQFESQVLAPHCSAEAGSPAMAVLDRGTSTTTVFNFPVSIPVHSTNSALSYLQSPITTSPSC

SMILES: O=C1C(C2=C(O)c3ccccc3C2=O)=Nc2ccccc21
- IC50: > 50 µM (inactive)
